Assay results from patent US9970848B2, “Method for evaluating state of horny layer and method for evaluating horny layer improvement effect of cosmetic preparation” (Shiseido Company, Ltd., priority 2013, dated 2018).

Test system: stratum corneum sheets obtained from the forearm flexor region
Assay: Screening of candidate cosmetics for ameliorating effect on the stratum corneum (fluorescein staining after wetting and drying)
Settings: 3% aqueous solution, 1 h immersion, dried 2 hours at 0% humidity, room temperature; 0.2 w/v % uranin staining; 12 visual fields averaged
Description: Stratum corneum sheets obtained from the forearm flexor region using stratum corneum release tape were affixed to glass slides, and each affixed stratum corneum sheet was immersed for one hour in water (two sheets) as a control and in a 3% erythritol aqueous solution (ER) and a 3% AQUAINPOOL 1407 aqueous solution (AQ), as candidate cosmetics. Next, one of the water-wetted stratum corneum sheets was dried at 0% humidity, room temperature, while the other was dried for 2 hours at 90% humidity, room temperature. The stratum corneum sheets wetted with ER and AQ were dried for 2 hours at 0% humidity, room temperature. […] The taken image was corrected for distortion and digitized using analysis software, and the fluorescent brightness was calculated.

OC[C@@H](O)[C@@H](O)CO [ER, erythritol]
fluorescent brightness compared with the water-wetted stratum corneum sheet (dried at 0% humidity): about the same
